Entries after “also recorded” stand apart in the source; their conditions may differ.
How the values were obtained:
A549 lung cancer cells = assay: Colony formation assay, alone or in combination with cisplatin
Raji leukemia cells = assay: Cytotoxicity / proliferation at varying concentrations vs vehicle control; format: cell-based
Protocol: (§1) In separate experiments, the bifunctional Metnase inhibitor, 4h-new3 (see FIGS. 4 and 43) and the monofunctional Metnase inhibitor 4h (FIG. 1 and FIG. 43), were tested at varying concentrations to determine cytotoxic activity in Raji leukemia eels and MCI-H929 myeloma cells. The compounds were tested against vehicle control at varying concentrations in the above-described cancer cell lines.

NCI-H929 myeloma cells = assay: as above; format: cell-based
Protocol: as §1

KG-1 leukemia cells = assay: KG-1 cell survival and proliferation (trypan blue counts), alone or with VP-16; format: cell-based, human; settings: KG-1 cells
Text: KG-1 cells are a human acute myeloid leukemia cell line established from a patient with acute myelogenous leukemia that had evolved from an erythroleukemia. Cytotoxicity of etoposide, a semisynthetic derivative of podophyllotoxin that also is called Vepesid (Bristol; code designation VP-16-213, abbreviated VP-16), is mediated by its interaction with DNA topoisomerase II (Topo II), an ATP-dependent nuclear enzyme that regulates DNA topology by transiently breaking and rejoining double-stranded DNA to allow DNA strand passage. Under normal conditions, the formation of a DNA strand break by Topo II is followed by precise realignment and resealing of the broken ends.
The human myeloid cell line KG-1 was grown in RPMI1640 with 10% FBS. The small cell lung cancer cell line CRL5898 was grown in HITES medium (Dulbecco's medium:Ham's F12, 50:50 mix, Insulin 0.005 mg/ml Transferrin 0.01 mg/ml Sodium selenite 30 nM Hydrocortisone 10 nM beta-estradiol 10 nM HEPES 10 mM L-glutamine 2 mM (in addition to that in the base medium)). Both cell lines were seeded at 10,000 cells/ml in the appropriate medium in 6 well plates. The Chem Div compounds were resuspended as 5 mM stock solutions in DMSO. […] Cells were plated and treated in triplicate and counted daily for 4 days in trypan blue to assess survival and proliferation.

[1] = A549, compound present for 24 hours at the beginning then removed
[2] = A549, compound constantly present, cisplatin present for a shorter period

O=C(O)c1cn(C2CC2)c2cc(N3CCN(C(=O)CCCc4ccc(N(CCCl)CCCl)cc4)CC3)c(F)cc2c1=O [WW-10]
cytotoxicity of compound compared with cisplatin (A549 lung cancer cells; A549, compound present 24 hours, cisplatin at higher concentration, shorter period): greater colony forming cell cytotoxicity than did cisplatin present at a higher concentration | effect against colony survival, compound alone (A549 lung cancer cells; [1]): significant dose dependent effect against colony survival | effect against colony survival, in combination with cisplatin (A549 lung cancer cells; [1]): especially active in combination with cisplatin at higher concentrations; also recorded: significant dose dependent effect against colony survival

Cn1c(CCCC(=O)N2CCN(c3cc4c(cc3F)c(=O)c(C(=O)O)cn4C3CC3)CC2)nc2cc(N(CCCl)CCCl)ccc21 [WW-01]
cytotoxicity of compound compared with cisplatin (A549 lung cancer cells; [2]): significantly greater activity than cisplatin | effect against colony survival, in combination with cisplatin (A549 lung cancer cells; [2]): especially active in combination with cisplatin at higher concentrations

CC(C)n1cc(C(=O)O)c(=O)c2ccc(C(=O)c3ccc(CN(CCCl)CCCl)cc3)cc21 [4H_new3]
level at which proliferation is decreased (Raji leukemia cells): below 1 μM | decrease of cancer cell proliferation compared with monofunctional inhibitor 4h (Raji leukemia cells; varying concentrations): significantly more effective at decreasing cancer cell proliferation | level at which proliferation is decreased (NCI-H929 myeloma cells): below 1 μM | decrease of cancer cell proliferation compared with monofunctional inhibitor 4h (NCI-H929 myeloma cells; varying concentrations): significantly more effective at decreasing cancer cell proliferation

CC(C)n1cc(C(=O)O)c(=O)c2ccccc21 [5483-0023]
cytotoxic activity / proliferation, compound on its own (KG-1 leukemia cells; compound alone): has cytotoxic activity on its own; also recorded: Decreases Proliferation of KG-1 Cells on its Own | potentiation of cytotoxic activity of VP-16 (KG-1 leukemia cells; in combination with VP-16): increases the cytotoxic activity of the anti-cancer drug VP-16; also recorded: Potentiates VP-16

Reference: patent US8889689B2, “Bifunctional metnase/intnase inhibitors and related compositions and methods of treatment of cancer” (STC.UNM, priority 2010, dated 2014)
